Measurements taken from ChEMBL document CHEMBL3046521, “Synthesis and antitumor activity of (4-hydroxyphenyl)[5-substituted alkyl/aryl)-2-thioxo-1,3,4-thiadiazol-3-yl]methanone and [(3,4-disubstituted)-1,3-thiazol-2ylidene]-4-hydroxybenzohydrazide” (2011).

Legend:
Assay type in all cases: functional
[1] = system: T47D; assay: Cytotoxicity against Homo sapiens (human) T47D cells after 48 hr by sulforhodamine B assay
[2] = system: SK-MEL-2; assay: Cytotoxicity against Homo sapiens (human) SK-MEL-2 cells after 48 hr by sulforhodamine B assay; details: SK-MEL-2, 48 h
[3] = system: SK-MEL-5; assay: Cytotoxicity against Homo sapiens (human) SK-MEL-5 cells after 48 hr by sulforhodamine B assay; details: SK-MEL-5, 48 h
[4] = system: HOP-62; assay: Cytotoxicity against Homo sapiens (human) HOP62 cells after 48 hr by sulforhodamine B assay; details: HOP-62, 48 h
[5] = system: TK-10; assay: Cytotoxicity against Homo sapiens (human) TK10 cells after 48 hr by sulforhodamine B assay; details: TK-10, 48 h
[6] = system: HCT-116; assay: Cytotoxicity against Homo sapiens (human) HCT116 cells after 48 hr by sulforhodamine B assay; details: HCT-116, 48 h
[7] = system: Malme-3M; assay: Cytotoxicity against Homo sapiens (human) MALME-3M cells after 48 hr by sulforhodamine B assay
[8] = system: PC-3; assay: Cytotoxicity against Homo sapiens (human) PC3 cells after 48 hr by sulforhodamine B assay; details: PC-3, 48 h
[9] = system: MDA-MB-468; assay: Cytotoxicity against Homo sapiens (human) MDA-MB-468 cells after 48 hr by sulforhodamine B assay; details: MDA-MB-468, 48 h
[10] = system: HT-29; assay: Cytotoxicity against Homo sapiens (human) HT-29 cells after 48 hr by sulforhodamine B assay; details: HT-29, 48 h
[11] = system: NCI-H522; assay: Cytotoxicity against Homo sapiens (human) NCI-H522 cells after 48 hr by sulforhodamine B assay; details: NCI-H522, 48 h
[12] = system: LOX IMVI; assay: Anticancer activity in Homo sapiens (human) LOXIMVI cells assessed as cell growth at 10^-5 M after 48 hr by SRB assay; details: read-out: Activity
[13] = system: HCT-15; assay: Cytotoxicity against Homo sapiens (human) HCT15 cells after 48 hr by sulforhodamine B assay; details: HCT-15, 48 h
[14] = system: NCI-H23; assay: Cytotoxicity against Homo sapiens (human) NCI-H23 cells after 48 hr by sulforhodamine B assay; details: NCI-H23, 48 h
[15] = system: SW-620; assay: Cytotoxicity against Homo sapiens (human) SW620 cells after 48 hr by sulforhodamine B assay; details: SW-620, 48 h
[16] = system: MDA-MB-435; assay: Cytotoxicity against Homo sapiens (human) MDA-MB-435 cells after 48 hr by sulforhodamine B assay; details: MDA-MB-435, 48 h
[17] = system: HOP-92; assay: Cytotoxicity against Homo sapiens (human) HOP92 cells after 48 hr by sulforhodamine B assay; details: HOP-92, 48 h
[18] = system: UACC-257; assay: Cytotoxicity against Homo sapiens (human) UACC257 cells after 48 hr by sulforhodamine B assay; details: UACC-257, 48 h
[19] = system: OVCAR-3; assay: Cytotoxicity against Homo sapiens (human) OVCAR3 cells after 48 hr by sulforhodamine B assay; details: OVCAR-3, 48 h
[20] = system: ACHN; assay: Cytotoxicity against Homo sapiens (human) ACHN cells after 48 hr by sulforhodamine B assay
[21] = system: K562; assay: Cytotoxicity against Homo sapiens (human) K562 cells after 48 hr by sulforhodamine B assay; details: K562, 48 h
[22] = system: MCF7; assay: Cytotoxicity against Homo sapiens (human) MCF7 cells after 48 hr by sulforhodamine B assay; details: MCF7, 48 h
[23] = system: MDA-MB-231; assay: Cytotoxicity against Homo sapiens (human) MDA-MB-231 cells after 48 hr by sulforhodamine B assay; details: MDA-MB-231, 48 h
[24] = system: U-251; assay: Cytotoxicity against Homo sapiens (human) U251 cells after 48 hr by sulforhodamine B assay; details: U-251, 48 h
[25] = system: BT-549; assay: Cytotoxicity against Homo sapiens (human) BT549 cells after 48 hr by sulforhodamine B assay; details: BT-549, 48 h
[26] = system: IGROV-1; assay: Cytotoxicity against Homo sapiens (human) IGROV1 cells after 48 hr by sulforhodamine B assay; details: IGROV-1, 48 h
[27] = system: 786-0; assay: Cytotoxicity against Homo sapiens (human) 786-0 cells after 48 hr by sulforhodamine B assay; details: 786-0, 48 h
[28] = system: HCC 2998; assay: Cytotoxicity against Homo sapiens (human) HCC2998 cells after 48 hr by sulforhodamine B assay; details: HCC 2998, 48 h
[29] = system: RXF 393; assay: Cytotoxicity against Homo sapiens (human) RXF393 cells after 48 hr by sulforhodamine B assay; details: RXF 393, 48 h

## COc1ccc(-c2cs/c(=N\NC(=O)c3ccc(O)cc3)n2-c2ccc(OC)cc2OC)cc1
[1]
  GI50: 5.13 µM
  LC50: > 100 µM
[1]; read-out: pTGI (converted)
  TGI: 79.4 µM
[2]
  GI50: 4.9 µM
  LC50: > 100 µM
[2]; read-out: pTGI (converted)
  TGI: 72.4 µM
[3]
  GI50: 5.37 µM
  LC50: 52.5 µM
[3]; read-out: pTGI (converted)
  TGI: 19.5 µM
[4]
  GI50: 2.95 µM
  LC50: 49 µM
[4]; read-out: pTGI (converted)
  TGI: 7.59 µM
[5]
  GI50: 13.5 µM
  LC50: > 100 µM
[5]; read-out: pTGI (converted)
  TGI: 75.9 µM
[6]
  GI50: 5.13 µM
  LC50: > 100 µM
[6]; read-out: pTGI (converted)
  TGI: 28.2 µM
[7]
  GI50: 5.37 µM
  LC50: > 100 µM
[7]; read-out: pTGI (converted)
  TGI: 64.6 µM
[8]
  GI50: 3.39 µM
  LC50: > 100 µM
[8]; read-out: pTGI (converted)
  TGI: > 100 µM
[9]
  GI50: 3.89 µM
  LC50: > 100 µM
[9]; read-out: pTGI (converted)
  TGI: > 100 µM
[10]
  GI50: 3.63 µM
  LC50: > 100 µM
[10]; read-out: pTGI (converted)
  TGI: 17 µM
[11]
  GI50: 2.57 µM
  LC50: > 100 µM
[11]; read-out: pTGI (converted)
  TGI: 20 µM
[12]
  growth at 10 µM: 58.3%
[13]
  GI50: 3.55 µM
  LC50 (concentration killing 50% of cells): > 100 µM
[13]; read-out: pTGI (converted)
  TGI: > 100 µM
[14]
  GI50: 11 µM
  LC50: > 100 µM
[14]; read-out: pTGI (converted)
  TGI: > 100 µM
[15]
  GI50: 4.37 µM
  LC50: > 100 µM
[15]; read-out: pTGI (converted)
  TGI: 43.7 µM
[16]
  GI50: 2.88 µM
  LC50: > 100 µM
[16]; read-out: pTGI (converted)
  TGI: 22.9 µM
[17]
  GI50: 3.31 µM
  LC50: > 100 µM
[17]; read-out: pTGI (converted)
  TGI: 37.2 µM
[18]
  GI50: 15.1 µM
  LC50: > 100 µM
[18]; read-out: pTGI (converted)
  TGI: > 100 µM
[19]
  GI50: 3.8 µM
  LC50: 95.5 µM
[19]; read-out: pTGI (converted)
  TGI: 17 µM
[20]
  GI50: 4.79 µM
  LC50: > 100 µM
[20]; read-out: pTGI (converted)
  TGI: > 100 µM
[21]
  GI50: 2.19 µM
  LC50: > 100 µM
[21]; read-out: pTGI (converted)
  TGI: > 100 µM
[22]
  GI50: 3.72 µM
  LC50: > 100 µM
[22]; read-out: pTGI (converted)
  TGI: 28.8 µM
[23]
  GI50: 3.16 µM
  LC50: > 100 µM
[23]; read-out: pTGI (converted)
  TGI: 20 µM
[24]
  GI50: 4.47 µM
  LC50: 93.3 µM
[24]; read-out: pTGI (converted)
  TGI: 89.1 µM
[25]
  GI50: 14.1 µM
  LC50: > 100 µM
[25]; read-out: pTGI (converted)
  TGI: 69.2 µM
[26]
  GI50: 7.94 µM
  LC50: > 100 µM
[26]; read-out: pTGI (converted)
  TGI: > 100 µM
[27]
  GI50: 4.07 µM
  LC50: > 100 µM
[27]; read-out: pTGI (converted)
  TGI: 26.3 µM
[28]
  GI50: 1.95 µM
  LC50: 53.7 µM
[28]; read-out: pTGI (converted)
  TGI: 5.25 µM
[29]
  GI50: 5.37 µM
  LC50: > 100 µM
[29]; read-out: pTGI (converted)
  TGI: > 100 µM
